Results reported in ChEMBL document CHEMBL3046389, “Synthesis and biological evaluation of novel hydroquinone dimethyl ethers as potential anticancer and antimicrobial agents” (2013).
Converted amounts (≈) assume the structure as drawn.

Tests used:
Format in all cases: functional
[1] = tested on: Staphylococcus aureus; assay: Antimicrobial activity against Staphylococcus aureus DSM 1104 after 48 hr by two-fold serial broth dilution method; conditions: DSM 1104, 48 h
[2] = tested on: Staphylococcus aureus; assay: Antimicrobial activity against Staphylococcus aureus DSM 1104 after 48 hr by two-fold serial broth dilution method relative to ampicillin
[3] = tested on: Pseudomonas aeruginosa; assay: Antimicrobial activity against Pseudomonas aeruginosa ATCC 10145 after 48 hr by two-fold serial broth dilution method; conditions: ATCC 10145, 48 h
[4] = tested on: Escherichia coli; assay: Antimicrobial activity against Escherichia coli ATCC 11775 after 48 hr by two-fold serial broth dilution method; conditions: ATCC 11775, 48 h
[5] = tested on: Candida albicans; assay: Antimicrobial activity against Candida albicans DSM 70014 after 48 hr by two-fold serial broth dilution method; conditions: DSM 70014, 48 h
[6] = tested on: Bacillus subtilis; assay: Antimicrobial activity against Bacillus subtilis ATCC 6633 after 48 hr by two-fold serial broth dilution method; conditions: ATCC 6633, 48 h
[7] = tested on: Candida albicans; assay: Antimicrobial activity against Candida albicans DSM 70014 after 48 hr by two-fold serial broth dilution method relative to clotrimazole
[8] = tested on: CAKI-1; assay: Growth inhibition of Homo sapiens (human) CAKI-1 cells at 10 uM after 48 hr by SRB assay; conditions: CAKI-1, 48 h, read-out: GI
[9] = tested on: EKVX; assay: Growth inhibition of Homo sapiens (human) EKVX cells at 10 uM after 48 hr by SRB assay; conditions: read-out: GI
[10] = tested on: SF-295; assay: Growth inhibition of Homo sapiens (human) SF295 cells at 10 uM after 48 hr by SRB assay; conditions: SF-295, 48 h, read-out: GI
[11] = tested on: MCF7; assay: Growth inhibition of Homo sapiens (human) MCF7 cells at 10 uM after 48 hr by SRB assay; conditions: MCF7, 48 h, read-out: GI
[12] = tested on: HCT-15; assay: Growth inhibition of Homo sapiens (human) HCT15 cells at 10 uM after 48 hr by SRB assay; conditions: HCT-15, 48 h, read-out: GI
[13] = tested on: HCT-116; assay: Growth inhibition of Homo sapiens (human) HCT116 cells at 10 uM after 48 hr by SRB assay; conditions: HCT-116, 48 h, read-out: GI
[14] = tested on: KM12; assay: Growth inhibition of Homo sapiens (human) KM12 cells at 10 uM after 48 hr by SRB assay; conditions: KM12, 48 h, read-out: GI
[15] = tested on: SK-MEL-5; assay: Growth inhibition of Homo sapiens (human) SK-MEL-5 cells at 10 uM after 48 hr by SRB assay; conditions: SK-MEL-5, 48 h, read-out: GI
[16] = tested on: A549; assay: Growth inhibition of Homo sapiens (human) A549/ATCC cells at 10 uM after 48 hr by SRB assay; conditions: A549, 48 h, read-out: GI
[17] = tested on: SR; assay: Growth inhibition of Homo sapiens (human) SR cells at 10 uM after 48 hr by SRB assay; conditions: read-out: GI
[18] = tested on: NCI-H23; assay: Growth inhibition of Homo sapiens (human) NCI-H23 cells at 10 uM after 48 hr by SRB assay; conditions: NCI-H23, 48 h, read-out: GI
[19] = tested on: RXF 393; assay: Growth inhibition of Homo sapiens (human) RXF393 cells at 10 uM after 48 hr by SRB assay; conditions: RXF 393, 48 h, read-out: GI
[20] = tested on: IGROV-1; assay: Growth inhibition of Homo sapiens (human) IGROV1 cells at 10 uM after 48 hr by SRB assay; conditions: IGROV-1, 48 h, read-out: GI
[21] = tested on: MDA-MB-468; assay: Growth inhibition of Homo sapiens (human) MDA-MB-468 cells at 10 uM after 48 hr by SRB assay; conditions: MDA-MB-468, 48 h, read-out: GI
[22] = tested on: ACHN; assay: Growth inhibition of Homo sapiens (human) ACHN cells at 10 uM after 48 hr by SRB assay; conditions: read-out: GI
[23] = tested on: Malme-3M; assay: Growth inhibition of Homo sapiens (human) MALME-3M cells at 10 uM after 48 hr by SRB assay; conditions: read-out: GI
[24] = tested on: K562; assay: Growth inhibition of Homo sapiens (human) K562 cells at 10 uM after 48 hr by SRB assay; conditions: K562, 48 h, read-out: GI
[25] = tested on: MDA-MB-435; assay: Growth inhibition of Homo sapiens (human) MDA-MB-435 cells at 10 uM after 48 hr by SRB assay; conditions: MDA-MB-435, 48 h, read-out: GI
[26] = tested on: PC-3; assay: Growth inhibition of Homo sapiens (human) PC3 cells at 10 uM after 48 hr by SRB assay; conditions: PC-3, 48 h, read-out: GI
[27] = tested on: UACC-62; assay: Growth inhibition of Homo sapiens (human) UACC62 cells at 10 uM after 48 hr by SRB assay; conditions: UACC-62, 48 h, read-out: GI
[28] = tested on: T47D; assay: Growth inhibition of Homo sapiens (human) T47D cells at 10 uM after 48 hr by SRB assay; conditions: read-out: GI
[29] = tested on: UO-31; assay: Growth inhibition of Homo sapiens (human) UO31 cells at 10 uM after 48 hr by SRB assay; conditions: UO-31, 48 h, read-out: GI
[30] = tested on: M14; assay: Growth inhibition of Homo sapiens (human) M14 cells at 10 uM after 48 hr by SRB assay; conditions: M14, 48 h, read-out: GI
[31] = tested on: HL-60(TB); assay: Growth inhibition of Homo sapiens (human) HL-60(TB) cells at 10 uM after 48 hr by SRB assay; conditions: HL-60, 48 h, read-out: GI
[32] = tested on: Pseudomonas aeruginosa; assay: Ratio of ampicillin MIC to compound MIC for Pseudomonas aeruginosa ATCC 10145 after 48 hr by two-fold serial broth dilution method

COc1ccc(OC)c(/C=C/c2nnc(SCC(=O)c3cc(O)ccc3O)n2-c2ccc(C)cc2)c1
MBC [1]: 25 µg/mL (≈ 49.6 µM)
MIC [1]: 12.5 µg/mL (≈ 24.8 µM)
Activity [2]: 40%
MBC [3]: 50 µg/mL (≈ 99.3 µM)
MIC [3]: 50 µg/mL (≈ 99.3 µM)
MBC [4]: 50 µg/mL (≈ 99.3 µM)
MIC [4]: 25 µg/mL (≈ 49.6 µM)
MFC [5]: 25 µg/mL (≈ 49.6 µM)
MIC [5]: 12.5 µg/mL (≈ 24.8 µM)
MBC [6]: 50 µg/mL (≈ 99.3 µM)
MIC [6]: 25 µg/mL (≈ 49.6 µM)
Activity [7]: 40%

COc1ccc(OC)c(/C=C/c2nnc(SC)n2-c2ccc(Cl)cc2)c1
inhibition of growth at 10 µM [8]: 35.5%
inhibition of growth at 10 µM [9]: 38.6%
inhibition of growth at 10 µM [10]: 53.2%
MBC [1]: 100 µg/mL (≈ 258 µM)
MIC [1]: 100 µg/mL (≈ 258 µM)
inhibition of growth at 10 µM [11]: 53.3%
inhibition of growth at 10 µM [12]: 41.1%
MBC [3]: 50 µg/mL (≈ 129 µM)
MIC [3]: 50 µg/mL (≈ 129 µM)
inhibition of growth at 10 µM [13]: 40.2%
inhibition of growth at 10 µM [14]: 46.9%
inhibition of growth at 10 µM [15]: 46.6%
inhibition of growth at 10 µM [16]: 35.2%
inhibition of growth at 10 µM [17]: 58.5%
inhibition of growth at 10 µM [18]: 40.3%
inhibition of growth at 10 µM [19]: 40.3%
inhibition of growth at 10 µM [20]: 38.2%
inhibition of growth at 10 µM [21]: 74.8%
inhibition of growth at 10 µM [22]: 32.1%
MBC [4]: 100 µg/mL (≈ 258 µM)
MIC [4]: 100 µg/mL (≈ 258 µM)
MFC [5]: 100 µg/mL (≈ 258 µM)
MIC [5]: 50 µg/mL (≈ 129 µM)
inhibition of growth at 10 µM [23]: 55.2%
inhibition of growth at 10 µM [24]: 69.3%
inhibition of growth at 10 µM [25]: 91.3%
inhibition of growth at 10 µM [26]: 61.1%
MBC [6]: 100 µg/mL (≈ 258 µM)
MIC [6]: 100 µg/mL (≈ 258 µM)
inhibition of growth at 10 µM [27]: 50.5%
inhibition of growth at 10 µM [28]: 57.2%
inhibition of growth at 10 µM [29]: 60.4%
inhibition of growth at 10 µM [30]: 40%
inhibition of growth at 10 µM [31]: 34.3%

COc1ccc(OC)c(/C=C/c2nnc(SC)n2-c2ccc(C)cc2)c1
MBC [1]: 50 µg/mL (≈ 136 µM)
MIC [1]: 50 µg/mL (≈ 136 µM)
Ratio [32]: 4
MBC [3]: 25 µg/mL (≈ 68 µM)
MIC [3]: 12.5 µg/mL (≈ 34 µM)
MBC [4]: 50 µg/mL (≈ 136 µM)
MIC [4]: 50 µg/mL (≈ 136 µM)
MFC [5]: 50 µg/mL (≈ 136 µM)
MIC [5]: 50 µg/mL (≈ 136 µM)
MBC [6]: 50 µg/mL (≈ 136 µM)
MIC [6]: 50 µg/mL (≈ 136 µM)

COc1ccc(OC)c(/C=C/c2nnc(SCC(=O)c3cc(O)ccc3O)n2-c2ccccc2)c1
MBC [1]: 50 µg/mL (≈ 102 µM)
MIC [1]: 25 µg/mL (≈ 51.1 µM)
Ratio [32]: 4
MBC [3]: 25 µg/mL (≈ 51.1 µM)
MIC [3]: 12.5 µg/mL (≈ 25.5 µM)
MBC [4]: 25 µg/mL (≈ 51.1 µM)
MIC [4]: 12.5 µg/mL (≈ 25.5 µM)
MFC [5]: 50 µg/mL (≈ 102 µM)
MIC [5]: 50 µg/mL (≈ 102 µM)
MBC [6]: 50 µg/mL (≈ 102 µM)
MIC [6]: 25 µg/mL (≈ 51.1 µM)
